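Tested at 5 concentrations; 48 h exposure; 96-well plates; endpoints linearly interpolated, else capped at highest concentration. The concentration for 50% growth inhibition is given as GI50.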 Active and inactive are the calls of the source. No stated cut-off is given here; in the data, active = GI50 up to about 1.1 µM and inactive = higher.
Experiments:
Assay in all cases: NCI tumour cell line growth inhibition, 48 h
[1] = system: HL-60
[2] = system: OVCAR-3
[3] = system: COLO 205
[4] = system: A549
[5] = system: OVCAR-4
[6] = system: SNB-75
[7] = system: 786-0
[8] = system: UACC-62
[9] = system: MDA-MB-435
[10] = system: HCC 2998
[11] = system: SK-OV-3
[12] = system: M14
[13] = system: SK-MEL-2
[14] = system: Hs-578T
[15] = system: PC-3
[16] = system: NCI-H23
[17] = system: UACC-257
[18] = system: RPMI-8226
[19] = system: MDA-MB-231
[20] = system: A498
[21] = system: RXF 393
[22] = system: SNB-19
[23] = system: SF-539
[24] = system: TK-10
[25] = system: OVCAR-5
[26] = system: HCT-116
[27] = system: IGROV-1
[28] = system: ACHN
[29] = system: EKVX
[30] = system: NCI-H460
[31] = system: CCRF-CEM
[32] = system: OVCAR-8
[33] = system: LOX IMVI
[34] = system: NCI-H226
[35] = system: MCF7
[36] = system: HCT-15
[37] = system: DU-145
[38] = system: CAKI-1
[39] = system: SF-295
[40] = system: SW-620
[41] = system: SN12C
[42] = system: SK-MEL-5
[43] = system: HOP-92
[44] = system: SR
[45] = system: UO-31
[46] = system: K562
[47] = system: HOP-62
[48] = system: NCI/ADR-RES
[49] = system: SK-MEL-28
[50] = system: HT-29
[51] = system: NCI-H522
[52] = system: KM12
[53] = system: U-251
[54] = system: MOLT-4
[55] = system: SF-268
[56] = system: BT-549
[57] = system: T47D
[58] = system: Malme-3M

Measured: GI50

Cc1ccc2c(c1)C(C(=O)N[C@@H]1C(=O)N3[C@@H]1SC(C)(C)[C@@H]3C(=O)O)OCCC2 (stereo partly drawn)
inactive: [1] > 100 µM | [2] 87.1 µM | [3] > 100 µM | [4] > 100 µM | [5] > 100 µM | [6] > 100 µM | [7] > 100 µM | [8] > 100 µM | [9] > 100 µM | [10] > 100 µM | [11] > 100 µM | [12] > 100 µM | [13] > 100 µM | [14] > 100 µM | [15] > 100 µM | [16] > 100 µM | [17] > 100 µM | [18] > 100 µM | [19] > 100 µM | [20] > 100 µM | [21] > 100 µM | [22] > 100 µM | [23] > 100 µM | [24] > 100 µM | [25] > 100 µM | [26] > 100 µM | [27] > 100 µM | [28] > 100 µM | [29] > 100 µM | [30] > 100 µM | [31] > 100 µM | [32] > 100 µM | [33] > 100 µM | [34] > 100 µM | [35] > 100 µM | [37] > 100 µM | [38] > 100 µM | [39] > 100 µM | [40] > 100 µM | [41] > 100 µM | [42] > 100 µM | [43] > 100 µM | [44] > 100 µM | [45] > 100 µM | [46] > 100 µM | [47] > 100 µM | [48] > 100 µM | [49] > 100 µM | [50] > 100 µM | [51] > 100 µM | [52] > 100 µM | [53] > 100 µM | [54] > 100 µM | [55] > 100 µM | [56] > 100 µM | [57] > 100 µM
> 100 µM: [36]

N[C@H](C(=O)O)[C@@H]1CC(Br)=NO1
54.1 µM: [36]
inactive: [1] > 100 µM | [2] > 100 µM | [3] 71.3 µM | [4] 87.5 µM | [5] > 100 µM | [6] 62.4 µM | [7] 99.8 µM | [8] 85.5 µM | [9] 95.3 µM | [10] 59.6 µM | [11] 69.5 µM | [12] 53.5 µM | [13] > 100 µM | [14] > 100 µM | [15] > 100 µM | [16] > 100 µM | [17] > 100 µM | [19] > 100 µM | [20] > 100 µM | [21] > 100 µM | [22] > 100 µM | [58] > 100 µM | [23] 97.7 µM | [24] 47.1 µM | [25] 61.4 µM | [26] 52.4 µM | [28] 73.5 µM | [29] 73.3 µM | [30] 42.2 µM | [32] 85.5 µM | [34] > 100 µM | [35] 41.5 µM | [37] > 100 µM | [38] 90.2 µM | [39] 73.6 µM | [40] 48.6 µM | [42] 54.5 µM | [43] > 100 µM | [44] 44.1 µM | [45] > 100 µM | [47] 61.9 µM | [48] > 100 µM | [50] 57.5 µM | [51] 77.4 µM | [52] 75.2 µM | [53] > 100 µM | [54] 59.3 µM | [55] > 100 µM | [56] 88.9 µM | [57] > 100 µM
